Measured values from patent US11040981B2, “Pyrrolotriazine compounds and methods of inhibiting TAM kinases” (Syros Pharmaceuticals, Inc., priority 2017, dated 2021).

Experiments:
AXL = biological target: T1, AXL (Homo sapiens, UniProt P30530); test: TR-FRET kinase activity assay, AXL; type: biochemical; details: ATP at Km, 60 minutes
T1 sequence (P30530 26-894): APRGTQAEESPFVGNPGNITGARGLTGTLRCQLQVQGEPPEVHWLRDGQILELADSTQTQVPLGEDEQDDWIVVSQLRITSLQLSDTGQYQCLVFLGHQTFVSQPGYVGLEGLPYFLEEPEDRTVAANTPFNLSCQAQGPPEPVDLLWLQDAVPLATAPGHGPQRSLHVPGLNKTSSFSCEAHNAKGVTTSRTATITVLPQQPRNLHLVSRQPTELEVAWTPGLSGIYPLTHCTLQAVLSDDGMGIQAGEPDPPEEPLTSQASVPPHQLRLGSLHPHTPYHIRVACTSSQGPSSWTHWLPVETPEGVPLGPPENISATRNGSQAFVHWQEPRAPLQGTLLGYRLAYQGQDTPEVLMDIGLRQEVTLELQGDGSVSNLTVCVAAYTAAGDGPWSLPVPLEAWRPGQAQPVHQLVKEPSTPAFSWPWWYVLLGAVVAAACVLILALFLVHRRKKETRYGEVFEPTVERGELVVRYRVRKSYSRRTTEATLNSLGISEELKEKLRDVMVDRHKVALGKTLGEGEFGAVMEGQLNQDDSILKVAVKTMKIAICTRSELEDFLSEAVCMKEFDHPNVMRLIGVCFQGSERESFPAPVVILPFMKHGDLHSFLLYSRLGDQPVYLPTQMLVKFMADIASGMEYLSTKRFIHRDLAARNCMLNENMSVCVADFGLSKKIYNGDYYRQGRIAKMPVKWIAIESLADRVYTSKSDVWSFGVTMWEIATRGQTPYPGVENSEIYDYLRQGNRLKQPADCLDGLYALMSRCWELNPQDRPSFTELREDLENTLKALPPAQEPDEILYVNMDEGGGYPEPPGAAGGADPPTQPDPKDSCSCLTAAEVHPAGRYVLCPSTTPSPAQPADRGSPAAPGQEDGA
Outline: (§1)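 IC50 reflects the drop in TR-FRET between Eu anti-phosphotyrosine antibody and labelled peptide after a 60-minute room-temperature reaction. Buffer was 50 mM HEPES pH 7.5 with 10 mM MgCl2, 1 mM EGTA, 0.01% Brij 35 and 1 mM DTT, with ATP at Km per enzyme and EDTA quench.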

MERTK = biological target: T2, MERTK (Homo sapiens, UniProt Q12866); test: TR-FRET kinase activity assay, MERTK; type: biochemical; details: for IC50: TR-FRET activity assay, ATP at Km, 60 minutes, read-out: Mer IC50
T2 sequence (Q12866 21-999): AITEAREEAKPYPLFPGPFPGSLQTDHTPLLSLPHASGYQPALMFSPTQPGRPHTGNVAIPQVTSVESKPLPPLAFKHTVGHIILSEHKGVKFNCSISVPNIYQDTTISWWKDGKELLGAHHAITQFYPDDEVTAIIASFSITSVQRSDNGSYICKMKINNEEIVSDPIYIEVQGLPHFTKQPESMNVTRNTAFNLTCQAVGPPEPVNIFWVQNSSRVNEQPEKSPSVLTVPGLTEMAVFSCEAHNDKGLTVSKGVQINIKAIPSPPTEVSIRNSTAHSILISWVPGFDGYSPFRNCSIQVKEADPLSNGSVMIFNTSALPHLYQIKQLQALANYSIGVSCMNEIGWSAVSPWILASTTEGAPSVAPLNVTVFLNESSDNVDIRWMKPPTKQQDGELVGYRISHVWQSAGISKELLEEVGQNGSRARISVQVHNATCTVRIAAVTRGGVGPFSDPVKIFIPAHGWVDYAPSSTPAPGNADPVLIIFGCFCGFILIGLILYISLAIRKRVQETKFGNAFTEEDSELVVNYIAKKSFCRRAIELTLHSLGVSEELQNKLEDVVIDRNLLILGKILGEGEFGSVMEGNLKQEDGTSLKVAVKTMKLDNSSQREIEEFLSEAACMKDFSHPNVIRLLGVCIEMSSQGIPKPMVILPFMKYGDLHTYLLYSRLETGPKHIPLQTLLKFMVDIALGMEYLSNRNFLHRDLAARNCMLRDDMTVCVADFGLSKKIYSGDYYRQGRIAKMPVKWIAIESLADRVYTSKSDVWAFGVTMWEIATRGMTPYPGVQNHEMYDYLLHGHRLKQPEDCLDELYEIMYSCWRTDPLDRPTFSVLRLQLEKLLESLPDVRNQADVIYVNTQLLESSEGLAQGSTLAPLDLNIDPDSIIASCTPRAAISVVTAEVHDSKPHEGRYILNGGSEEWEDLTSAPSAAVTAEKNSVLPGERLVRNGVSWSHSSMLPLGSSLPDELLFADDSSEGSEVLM
Outline: as §1

[1] = ratio calculated as FLT3 IC50/Mer IC50

Compound: COC[C@H](C)Nc1ncc2c(C3=C[C@@H]4CC[C@H](C3)N4)cc([C@H]3CC[C@H](O)CC3)n2n1 [Compound 461]
- IC50 (AXL): ≤ 100 nM
- IC50 (MERTK): ≤ 100 nM
- FLT3/Mer ratio (FLT3 IC50/Mer IC50) (MERTK; [1]): +++ (“+++” represents a ratio of >100)

Compound: COC[C@H](C)Nc1ncc2c(-c3ccc(C(C)(C)C(=O)N4CCOCC4)s3)cc([C@H]3CC[C@H](O)CC3)n2n1 [Compound 460]
- IC50 (AXL): ≤ 100 nM
- IC50 (MERTK): ≤ 100 nM
- FLT3/Mer ratio (FLT3 IC50/Mer IC50) (MERTK; [1]): +++ (“+++” represents a ratio of >100)

Compound: COC[C@H](C)Nc1ncc2c(C3=C[C@H]4CC[C@@H](C3)N4C(=O)N3CCOCC3)cc([C@H]3CC[C@H](O)CC3)n2n1 [Compound 469]
- IC50 (AXL): ≤ 100 nM
- IC50 (MERTK): ≤ 100 nM
- FLT3/Mer ratio (FLT3 IC50/Mer IC50) (MERTK; [1]): +++ (“+++” represents a ratio of >100)

Compound: COC[C@H](C)Nc1ncc2c(-c3cccc(N4C[C@H]5COC[C@H]5C4)c3)cc([C@H]3CC[C@H](O)CC3)n2n1 [Compound 464]
- IC50 (AXL): ≤ 100 nM
- IC50 (MERTK): ≤ 100 nM
- FLT3/Mer ratio (FLT3 IC50/Mer IC50) (MERTK; [1]): +++ (“+++” represents a ratio of >100)

Compound: C[C@@H](CC(F)(F)F)Nc1ncc2c([C@H]3CC[C@@H](C(=O)N4CCOCC4)CC3)cc([C@H]3CC[C@H](O)CC3)n2n1 [Compound 446]
- IC50 (AXL): ≤ 100 nM
- IC50 (MERTK): ≤ 100 nM
- FLT3/Mer ratio (FLT3 IC50/Mer IC50) (MERTK; [1]): +++ (“+++” represents a ratio of >100)

Compound: COC[C@H](C)Nc1ncc2c(-c3ccnc(N4CCN(C(=O)OC5COC5)CC4)c3)cc([C@H]3CC[C@H](O)CC3)n2n1 [Compound 504]
- IC50 (AXL): ≤ 100 nM
- IC50 (MERTK): ≤ 100 nM
- FLT3/Mer ratio (FLT3 IC50/Mer IC50) (MERTK; [1]): +++ (“+++” represents a ratio of >100)

Compound: COC[C@H](C)Nc1ncc2c(-c3ccnc(N4CCN(S(=O)(=O)C5CC5)CC4)c3)cc([C@H]3CC[C@H](O)CC3)n2n1 [Compound 491]
- IC50 (AXL): ≤ 100 nM
- IC50 (MERTK): ≤ 100 nM
- FLT3/Mer ratio (FLT3 IC50/Mer IC50) (MERTK; [1]): +++ (“+++” represents a ratio of >100)

Compound: COC[C@H](C)Nc1ncc2c(-c3cnn(C(C)(C)C(=O)N4Cc5nc(C)sc5C4)c3)cc([C@H]3CC[C@H](O)CC3)n2n1 [Compound 495]
- IC50 (AXL): ≤ 100 nM
- IC50 (MERTK): ≤ 100 nM
- FLT3/Mer ratio (FLT3 IC50/Mer IC50) (MERTK; [1]): +++ (“+++” represents a ratio of >100)

Compound: CC[C@H](C)Nc1ncc2c(-c3ccc(CN4CCN(C)CC4)cc3)cc([C@H]3CC[C@](C)(O)CC3)n2n1 (relative stereo) [Compound 132, (trans)-4-(2-((S)-sec-butylamino)-5-(4-((4-methylpiperazin-1-yl)methyl)phenyl)pyrrolo[2,1-f][1,2,4]triazin-7-yl)-1-methylcyclohexanol]
- IC50 (AXL): ≤ 100 nM
- IC50 (MERTK): ≤ 100 nM
- FLT3/Mer ratio (FLT3 IC50/Mer IC50) (MERTK; ratio of Mer to FLT3: FLT3 IC50/Mer IC50): ++ (“++” represents a ratio of between 10 and 100)

Compound: COC[C@H](C)Nc1ncc2c(-c3cnn(C[C@@H]4CC(=O)N(C)C4)c3)cc([C@H]3CC[C@H](O)CC3)n2n1 [Compound 473]
- IC50 (AXL): ≤ 100 nM
- IC50 (MERTK): ≤ 100 nM
- FLT3/Mer ratio (FLT3 IC50/Mer IC50) (MERTK; [1]): +++ (“+++” represents a ratio of >100)

Compound: COC[C@H](C)Nc1ncc2c(-c3cnn(C(C)(C)C(=O)N4CCC(C)(C#N)CC4)c3)cc([C@H]3CC[C@H](O)CC3)n2n1 [Compound 451]
- IC50 (AXL): ≤ 100 nM
- IC50 (MERTK): ≤ 100 nM
- FLT3/Mer ratio (FLT3 IC50/Mer IC50) (MERTK; [1]): +++ (“+++” represents a ratio of >100)

Compound: COC[C@H](C)Nc1ncc2c(C3=C[C@@H]4CC[C@H](C3)N4C(C)=O)cc([C@H]3CC[C@H](O)CC3)n2n1 [Compound 462]
- IC50 (AXL): ≤ 100 nM
- IC50 (MERTK): ≤ 100 nM
- FLT3/Mer ratio (FLT3 IC50/Mer IC50) (MERTK; [1]): +++ (“+++” represents a ratio of >100)

Compound: COC[C@H](C)Nc1ncc2c(CC#N)cc([C@H]3CC[C@H](O)CC3)n2n1 [Compound 497]
- IC50 (AXL): 100 to 1000 nM
- IC50 (MERTK): ≤ 100 nM
- FLT3/Mer ratio (FLT3 IC50/Mer IC50) (MERTK; [1]): +++ (“+++” represents a ratio of >100)
